The source of these data is ChEMBL document CHEMBL4649996, “Selective inhibition of BET bromodomains” (Nature, 2010).

Holding throughout (conditions): Compound concentration 10.0 uM, Protein concentration 2.0 uM
The target of test [1] is Bromodomain-containing protein 2 (Homo sapiens) (UniProt P25440).
Test [2] deals with Histone acetyltransferase KAT2B (Homo sapiens) (UniProt Q92831).
For test [3], the target named is Bromodomain-containing protein 2 (Homo sapiens) (UniProt P25440). This is another data set of the same source.
Test [4] concerns the target Nuclear body protein SP140-like protein (Homo sapiens) (UniProt Q9H930).

Sequence of Bromodomain-containing protein 2 (Homo sapiens) (P25440 whole entry, looked up): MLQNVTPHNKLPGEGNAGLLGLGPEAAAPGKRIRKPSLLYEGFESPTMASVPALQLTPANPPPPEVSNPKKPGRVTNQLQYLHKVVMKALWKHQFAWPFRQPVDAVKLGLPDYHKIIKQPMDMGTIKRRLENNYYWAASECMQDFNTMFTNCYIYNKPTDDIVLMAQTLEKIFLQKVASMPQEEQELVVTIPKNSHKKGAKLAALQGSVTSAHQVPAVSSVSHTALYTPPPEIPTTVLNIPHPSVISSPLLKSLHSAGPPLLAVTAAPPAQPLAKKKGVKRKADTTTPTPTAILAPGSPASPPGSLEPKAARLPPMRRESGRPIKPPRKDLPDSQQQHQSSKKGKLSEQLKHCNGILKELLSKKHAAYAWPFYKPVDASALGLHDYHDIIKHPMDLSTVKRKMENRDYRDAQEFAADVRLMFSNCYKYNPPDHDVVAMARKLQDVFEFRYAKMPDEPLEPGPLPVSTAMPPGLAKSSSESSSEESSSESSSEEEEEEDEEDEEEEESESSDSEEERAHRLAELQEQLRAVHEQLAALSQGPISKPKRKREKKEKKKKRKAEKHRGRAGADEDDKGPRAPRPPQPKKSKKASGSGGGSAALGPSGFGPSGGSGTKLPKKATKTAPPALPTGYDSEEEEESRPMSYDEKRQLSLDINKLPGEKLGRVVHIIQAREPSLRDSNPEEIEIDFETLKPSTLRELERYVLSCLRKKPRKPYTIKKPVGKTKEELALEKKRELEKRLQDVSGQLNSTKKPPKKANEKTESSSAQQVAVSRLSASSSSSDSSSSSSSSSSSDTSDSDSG
Sequence of Nuclear body protein SP140-like protein (Homo sapiens) (Q9H930 whole entry): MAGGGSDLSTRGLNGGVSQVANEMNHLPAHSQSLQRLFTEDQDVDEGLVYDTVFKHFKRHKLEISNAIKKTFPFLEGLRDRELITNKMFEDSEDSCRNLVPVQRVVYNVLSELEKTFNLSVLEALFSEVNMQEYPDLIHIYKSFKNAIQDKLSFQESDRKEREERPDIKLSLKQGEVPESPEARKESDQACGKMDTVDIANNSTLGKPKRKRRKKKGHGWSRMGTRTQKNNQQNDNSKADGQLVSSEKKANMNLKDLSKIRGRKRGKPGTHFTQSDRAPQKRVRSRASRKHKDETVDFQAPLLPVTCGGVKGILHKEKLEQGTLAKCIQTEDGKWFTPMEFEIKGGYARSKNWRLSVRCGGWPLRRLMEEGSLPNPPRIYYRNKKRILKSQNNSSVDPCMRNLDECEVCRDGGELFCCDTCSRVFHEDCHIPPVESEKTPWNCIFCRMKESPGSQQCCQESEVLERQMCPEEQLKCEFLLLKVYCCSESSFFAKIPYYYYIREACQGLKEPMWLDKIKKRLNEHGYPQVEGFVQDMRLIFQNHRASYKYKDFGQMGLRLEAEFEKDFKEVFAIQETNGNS
Sequence of Histone acetyltransferase KAT2B (Homo sapiens) (Q92831 whole entry, looked up): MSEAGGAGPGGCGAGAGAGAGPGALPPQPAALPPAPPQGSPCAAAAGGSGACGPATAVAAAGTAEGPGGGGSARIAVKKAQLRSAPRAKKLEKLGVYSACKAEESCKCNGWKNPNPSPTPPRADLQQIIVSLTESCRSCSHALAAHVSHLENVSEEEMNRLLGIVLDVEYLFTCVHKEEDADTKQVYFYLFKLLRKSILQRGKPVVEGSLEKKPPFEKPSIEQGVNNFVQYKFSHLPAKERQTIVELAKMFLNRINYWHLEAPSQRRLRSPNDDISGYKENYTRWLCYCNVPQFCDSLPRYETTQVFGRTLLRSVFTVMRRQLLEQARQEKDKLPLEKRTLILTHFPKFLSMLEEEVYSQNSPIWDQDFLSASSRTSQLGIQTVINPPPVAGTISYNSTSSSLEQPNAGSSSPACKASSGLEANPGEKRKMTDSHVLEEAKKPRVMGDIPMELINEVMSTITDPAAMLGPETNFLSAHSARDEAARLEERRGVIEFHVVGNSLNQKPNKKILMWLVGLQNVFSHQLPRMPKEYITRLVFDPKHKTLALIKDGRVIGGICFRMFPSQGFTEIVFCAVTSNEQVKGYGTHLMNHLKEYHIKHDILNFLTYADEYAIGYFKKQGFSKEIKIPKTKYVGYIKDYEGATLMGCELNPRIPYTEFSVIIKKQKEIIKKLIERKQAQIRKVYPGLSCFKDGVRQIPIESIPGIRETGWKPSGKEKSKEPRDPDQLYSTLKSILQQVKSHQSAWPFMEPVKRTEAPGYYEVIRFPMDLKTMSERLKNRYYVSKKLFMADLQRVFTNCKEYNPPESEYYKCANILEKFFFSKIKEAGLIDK

Consider `Cc1sc2c(c1C)C(c1ccc(Cl)cc1)=N[C@@H](CC(=O)OC(C)(C)C)c1nnc(C)n1-2`, for which the ΔTm in test [1] is 8.16 °C; in test [2], 0.7 °C; in test [3], 5.58 °C; in test [4] it was -0.07 °C.

As a reminder, the ΔTm is the change in melting temperature against a reference sample.
